Legend:
MDA-MB-231 = assay: Real time cell proliferation, IncuCyte ZOOM, 72 hours; type: cell-based; details: Homo sapiens, MDA-MB-231, 72 h
[1] = biological target: T1, scanMAX Kinase assay panel (Homo sapiens, UniProt P04626); assay: Kinase selectivity, scanMAX Kinase assay panel (DiscoverX), % control at 1 uM; type: binding; details: ERBB2; 1 uM; read-out: Percent Control (%)
T1 construct: purchased DiscoverX
Procedure: (§1) The following experiment was performed to evaluate the inhibitory activity of the compound of the present invention on more enzymes.
(§2) Particularly, among the compounds of the present invention, the compounds of Example 1, Example 12 and Example 78 were selected and assigned to DiscoverX to measure the kinase selectivity. The experiment was performed by using scanMAX™ Kinase assay panel.
(§3) At this time, the concentration of the drug to be treated to the enzyme was adjusted to 1 uM in DMSO, and the control percentage (% control) was determined according to the following Equation 1. [Example Compound−Positive Control/Negative Control−Positive Control]×100 [Equation 1]
(§4) The enzyme selectivity of the compound of the present invention was judged to be active for the enzyme if the % control was <35 (i.e. less than 35%) for each enzyme.

[2] = biological target: T2, scanMAX Kinase assay panel (Homo sapiens, UniProt Q7L7X3); assay: as above; type: binding; details: TAOK1; 1 uM; read-out: Percent Control (%)
T2 construct: purchased DiscoverX
T2 sequence (Q7L7X3 1-1001): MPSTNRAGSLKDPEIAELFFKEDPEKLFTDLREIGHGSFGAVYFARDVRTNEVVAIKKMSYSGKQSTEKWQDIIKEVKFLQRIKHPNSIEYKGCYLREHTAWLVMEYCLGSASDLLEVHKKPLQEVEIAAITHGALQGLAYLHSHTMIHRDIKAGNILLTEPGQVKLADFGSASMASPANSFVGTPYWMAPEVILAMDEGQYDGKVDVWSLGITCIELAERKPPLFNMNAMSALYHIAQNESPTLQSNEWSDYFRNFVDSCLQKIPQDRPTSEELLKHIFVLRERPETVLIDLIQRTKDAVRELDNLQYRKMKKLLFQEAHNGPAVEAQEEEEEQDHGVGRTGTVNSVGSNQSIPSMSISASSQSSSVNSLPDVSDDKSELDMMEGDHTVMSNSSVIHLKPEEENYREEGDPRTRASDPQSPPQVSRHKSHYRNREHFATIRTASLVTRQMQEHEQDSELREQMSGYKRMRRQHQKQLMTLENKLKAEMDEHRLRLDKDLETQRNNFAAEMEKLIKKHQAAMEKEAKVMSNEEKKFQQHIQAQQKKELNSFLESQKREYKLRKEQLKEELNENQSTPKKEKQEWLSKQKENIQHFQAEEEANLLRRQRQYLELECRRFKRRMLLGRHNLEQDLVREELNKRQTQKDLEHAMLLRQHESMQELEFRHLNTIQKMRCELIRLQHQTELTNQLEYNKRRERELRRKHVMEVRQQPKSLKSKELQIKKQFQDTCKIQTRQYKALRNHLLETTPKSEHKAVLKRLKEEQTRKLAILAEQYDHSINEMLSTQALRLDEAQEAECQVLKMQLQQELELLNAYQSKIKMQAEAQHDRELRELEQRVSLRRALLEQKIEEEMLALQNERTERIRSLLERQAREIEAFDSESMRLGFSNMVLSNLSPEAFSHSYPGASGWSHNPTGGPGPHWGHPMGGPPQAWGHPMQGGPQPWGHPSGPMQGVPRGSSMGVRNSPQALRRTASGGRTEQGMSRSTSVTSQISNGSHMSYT
Procedure: as §1, §2, §3, §4

[3] = biological target: T3, scanMAX Kinase assay panel (Homo sapiens, UniProt P28482); assay: as above; type: binding; details: ERK2; 1 uM; read-out: Percent Control (%)
T3 construct: purchased DiscoverX
Procedure: as §1, §2, §3, §4

[4] = biological target: T4, scanMAX Kinase assay panel (Homo sapiens, UniProt Q9Y6R4); assay: as above; type: binding; details: MAP3K4; 1 uM; read-out: Percent Control (%)
T4 construct: purchased DiscoverX
Procedure: as §1, §2, §3, §4

[5] = biological target: T5, scanMAX Kinase assay panel (Homo sapiens, UniProt Q9P2K8, S808G); assay: as above; type: binding; details: GCN2 (Kin.Dom.2, S808G); 1 uM; read-out: Percent Control (%)
T5 construct: purchased DiscoverX
Procedure: as §1, §2, §3, §4

M-NFS-60 = assay: Cancer cell proliferation inhibition, CCK-8, 72 hours; type: cell-based
Outline: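 Cells were grown in RPMI with 10% FBS, 0.05 mM 2-mercaptoethanol and human M-CSF, and seeded at 20000 cells/well. Compounds were added from a 3-fold DMSO dilution series topping at 1968 nM (dilution-plate concentration; 11 points including DMSO control). After 72 h at 37 °C, CCK-8 was added for 2 h and OD450 read.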

T1 sequence (P04626 23-1255): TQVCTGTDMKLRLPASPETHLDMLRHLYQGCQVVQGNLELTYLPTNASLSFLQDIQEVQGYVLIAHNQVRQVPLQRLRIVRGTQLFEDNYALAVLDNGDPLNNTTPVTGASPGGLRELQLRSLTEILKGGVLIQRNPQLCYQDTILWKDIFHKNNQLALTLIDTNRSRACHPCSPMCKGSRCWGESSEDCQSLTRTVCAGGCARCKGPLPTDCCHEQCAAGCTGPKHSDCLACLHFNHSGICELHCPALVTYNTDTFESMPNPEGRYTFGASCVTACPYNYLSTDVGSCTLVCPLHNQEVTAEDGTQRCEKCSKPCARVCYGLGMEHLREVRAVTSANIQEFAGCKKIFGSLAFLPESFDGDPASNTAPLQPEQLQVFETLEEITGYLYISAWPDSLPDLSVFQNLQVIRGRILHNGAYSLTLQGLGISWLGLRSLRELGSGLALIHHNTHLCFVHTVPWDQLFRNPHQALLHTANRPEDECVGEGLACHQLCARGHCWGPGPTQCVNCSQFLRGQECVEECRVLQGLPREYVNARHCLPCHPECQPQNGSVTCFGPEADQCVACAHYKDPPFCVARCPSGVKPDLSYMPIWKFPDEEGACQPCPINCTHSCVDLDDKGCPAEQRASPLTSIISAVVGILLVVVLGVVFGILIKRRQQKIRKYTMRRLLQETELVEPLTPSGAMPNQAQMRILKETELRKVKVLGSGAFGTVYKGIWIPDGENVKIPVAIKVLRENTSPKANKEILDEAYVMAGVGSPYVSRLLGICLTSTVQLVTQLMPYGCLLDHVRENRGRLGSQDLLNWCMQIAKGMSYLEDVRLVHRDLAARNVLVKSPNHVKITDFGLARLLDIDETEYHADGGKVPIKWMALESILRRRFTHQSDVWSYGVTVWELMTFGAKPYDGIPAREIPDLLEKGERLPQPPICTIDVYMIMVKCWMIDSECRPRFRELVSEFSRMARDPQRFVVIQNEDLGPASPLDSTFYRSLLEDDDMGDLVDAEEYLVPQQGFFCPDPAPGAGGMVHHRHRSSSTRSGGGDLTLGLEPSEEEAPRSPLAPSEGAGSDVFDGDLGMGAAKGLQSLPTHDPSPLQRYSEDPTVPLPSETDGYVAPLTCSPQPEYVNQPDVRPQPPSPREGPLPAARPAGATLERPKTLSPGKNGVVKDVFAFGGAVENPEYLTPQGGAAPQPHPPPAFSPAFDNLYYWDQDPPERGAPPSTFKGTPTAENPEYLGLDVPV
T5 sequence (Q9P2K8 whole entry S808G): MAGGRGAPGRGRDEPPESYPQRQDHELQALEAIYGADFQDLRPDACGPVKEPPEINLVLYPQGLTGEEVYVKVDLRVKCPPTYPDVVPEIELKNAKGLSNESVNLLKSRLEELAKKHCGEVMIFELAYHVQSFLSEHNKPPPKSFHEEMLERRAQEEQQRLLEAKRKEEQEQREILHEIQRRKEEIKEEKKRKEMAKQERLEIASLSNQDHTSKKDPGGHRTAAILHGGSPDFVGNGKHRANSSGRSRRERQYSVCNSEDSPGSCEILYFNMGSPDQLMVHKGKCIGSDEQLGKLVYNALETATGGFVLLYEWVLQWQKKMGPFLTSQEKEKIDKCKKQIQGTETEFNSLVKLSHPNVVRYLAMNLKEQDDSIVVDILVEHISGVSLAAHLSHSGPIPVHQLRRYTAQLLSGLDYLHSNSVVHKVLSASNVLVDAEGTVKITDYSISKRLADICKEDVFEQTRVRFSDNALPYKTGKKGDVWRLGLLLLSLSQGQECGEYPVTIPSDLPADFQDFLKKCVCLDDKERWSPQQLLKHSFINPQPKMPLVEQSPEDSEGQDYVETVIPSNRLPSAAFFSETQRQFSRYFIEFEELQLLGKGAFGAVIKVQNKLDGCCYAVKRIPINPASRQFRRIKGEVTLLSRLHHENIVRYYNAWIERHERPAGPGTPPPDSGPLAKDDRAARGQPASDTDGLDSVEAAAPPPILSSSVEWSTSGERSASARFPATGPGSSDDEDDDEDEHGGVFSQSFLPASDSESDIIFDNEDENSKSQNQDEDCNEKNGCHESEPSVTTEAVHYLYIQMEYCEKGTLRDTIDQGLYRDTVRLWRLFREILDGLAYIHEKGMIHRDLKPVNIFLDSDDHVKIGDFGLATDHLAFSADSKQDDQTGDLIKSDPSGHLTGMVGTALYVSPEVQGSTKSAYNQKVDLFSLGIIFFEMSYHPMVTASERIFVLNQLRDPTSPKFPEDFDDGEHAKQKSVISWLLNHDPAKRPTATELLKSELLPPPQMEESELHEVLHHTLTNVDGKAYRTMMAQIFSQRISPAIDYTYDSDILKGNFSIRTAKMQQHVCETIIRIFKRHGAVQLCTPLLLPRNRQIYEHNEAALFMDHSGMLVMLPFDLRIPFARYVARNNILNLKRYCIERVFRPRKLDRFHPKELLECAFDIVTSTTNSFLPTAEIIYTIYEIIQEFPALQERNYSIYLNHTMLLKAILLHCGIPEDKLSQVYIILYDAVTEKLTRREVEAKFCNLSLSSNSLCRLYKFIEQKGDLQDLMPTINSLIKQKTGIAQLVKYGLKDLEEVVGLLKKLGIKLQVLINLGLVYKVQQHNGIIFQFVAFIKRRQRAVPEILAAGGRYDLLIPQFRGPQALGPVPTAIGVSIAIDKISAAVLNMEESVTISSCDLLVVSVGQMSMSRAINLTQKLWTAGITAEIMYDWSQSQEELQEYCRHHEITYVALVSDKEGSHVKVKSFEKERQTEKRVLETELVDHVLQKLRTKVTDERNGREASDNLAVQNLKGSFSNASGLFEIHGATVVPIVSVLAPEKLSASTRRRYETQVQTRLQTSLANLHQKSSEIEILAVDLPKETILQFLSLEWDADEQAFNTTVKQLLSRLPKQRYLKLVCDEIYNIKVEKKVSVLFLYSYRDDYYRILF
T3 sequence (P28482 whole entry): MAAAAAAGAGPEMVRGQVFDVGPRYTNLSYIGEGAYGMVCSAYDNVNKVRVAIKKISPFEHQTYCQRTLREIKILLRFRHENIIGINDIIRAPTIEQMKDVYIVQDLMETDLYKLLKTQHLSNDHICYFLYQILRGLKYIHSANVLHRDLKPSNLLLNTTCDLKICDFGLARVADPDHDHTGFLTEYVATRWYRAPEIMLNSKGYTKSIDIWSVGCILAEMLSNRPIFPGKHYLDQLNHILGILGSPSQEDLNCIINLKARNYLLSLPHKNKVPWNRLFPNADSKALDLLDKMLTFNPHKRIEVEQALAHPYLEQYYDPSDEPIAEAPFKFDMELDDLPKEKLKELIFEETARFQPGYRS
T4 sequence (Q9Y6R4 whole entry): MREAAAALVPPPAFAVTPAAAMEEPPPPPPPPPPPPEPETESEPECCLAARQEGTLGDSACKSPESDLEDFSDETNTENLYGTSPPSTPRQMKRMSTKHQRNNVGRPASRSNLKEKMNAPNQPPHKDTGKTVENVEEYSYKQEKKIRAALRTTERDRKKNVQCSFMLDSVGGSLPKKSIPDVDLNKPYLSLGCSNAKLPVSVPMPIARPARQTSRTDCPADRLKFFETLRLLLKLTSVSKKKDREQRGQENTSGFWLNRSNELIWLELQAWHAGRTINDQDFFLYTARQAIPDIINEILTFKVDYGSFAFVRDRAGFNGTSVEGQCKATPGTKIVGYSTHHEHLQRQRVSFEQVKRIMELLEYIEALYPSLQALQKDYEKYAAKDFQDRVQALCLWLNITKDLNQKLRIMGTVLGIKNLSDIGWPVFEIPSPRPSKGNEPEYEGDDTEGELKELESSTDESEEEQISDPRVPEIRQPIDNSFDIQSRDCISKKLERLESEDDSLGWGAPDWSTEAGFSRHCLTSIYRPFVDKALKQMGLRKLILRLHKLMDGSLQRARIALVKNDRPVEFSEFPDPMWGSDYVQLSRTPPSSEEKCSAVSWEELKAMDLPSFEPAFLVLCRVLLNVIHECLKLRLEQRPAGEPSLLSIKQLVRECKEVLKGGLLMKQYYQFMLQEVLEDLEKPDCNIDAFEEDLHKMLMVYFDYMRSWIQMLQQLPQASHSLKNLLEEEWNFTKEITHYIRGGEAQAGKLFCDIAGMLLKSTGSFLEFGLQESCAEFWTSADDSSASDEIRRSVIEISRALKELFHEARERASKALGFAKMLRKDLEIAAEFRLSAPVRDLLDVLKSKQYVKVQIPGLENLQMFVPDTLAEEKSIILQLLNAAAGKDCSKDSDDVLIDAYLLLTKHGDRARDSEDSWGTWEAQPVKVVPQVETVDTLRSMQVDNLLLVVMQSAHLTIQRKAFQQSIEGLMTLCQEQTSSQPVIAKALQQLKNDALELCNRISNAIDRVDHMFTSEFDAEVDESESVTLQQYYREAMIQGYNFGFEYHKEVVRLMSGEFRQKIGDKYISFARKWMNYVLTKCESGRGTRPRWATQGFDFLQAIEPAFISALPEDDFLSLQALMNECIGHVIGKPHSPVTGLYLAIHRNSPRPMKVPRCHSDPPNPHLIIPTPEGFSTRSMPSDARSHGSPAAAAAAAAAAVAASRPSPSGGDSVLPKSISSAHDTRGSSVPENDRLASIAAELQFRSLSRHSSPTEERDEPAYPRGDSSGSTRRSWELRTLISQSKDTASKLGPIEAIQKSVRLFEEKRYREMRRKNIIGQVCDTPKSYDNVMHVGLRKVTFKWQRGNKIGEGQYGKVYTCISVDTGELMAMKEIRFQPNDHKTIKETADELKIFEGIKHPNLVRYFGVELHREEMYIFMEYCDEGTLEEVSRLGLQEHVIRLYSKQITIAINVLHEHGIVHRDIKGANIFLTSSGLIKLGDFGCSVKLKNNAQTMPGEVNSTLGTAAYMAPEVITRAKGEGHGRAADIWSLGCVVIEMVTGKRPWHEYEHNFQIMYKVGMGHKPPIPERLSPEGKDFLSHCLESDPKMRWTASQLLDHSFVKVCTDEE

Work on Cc1ccc(C(=O)Nc2ccc(CN3CCN(C)CC3)c(C(F)(F)F)c2)cc1C#Cc1cnc2c(Nc3cnn(C)c3)cccn12 [Example 1, 4-methyl-3-((8-((1-methyl-1H-pyrazol-4-yl)amino)imidazo[1,2-a]pyridin-3-yl)ethynyl)-N-(4-((4-methylpiperazin-1-yl)methyl)-3-(trifluoromethyl)phenyl)benzamide] yielded an IC50 (MDA-MB-231) of 187 nM, a remaining binding at 1 µM [1] of 1% and a remaining binding at 1 µM [2] of 51%. The remaining binding at 1 µM [3] was 100%, the remaining binding at 1 µM [4] was 70% and the remaining binding at 1 µM [5] was 0%. For the same molecule, the IC50 (M-NFS-60) was 64.6 nM.

For CCN1CCN(Cc2ccc(NC(=O)c3ccc(C)c(C#Cc4cnc5c(Nc6cnn(C)c6)cccn45)c3)cc2C(F)(F)F)CC1 [Example 8, N-(4-((4-ethylpiperazin-1-yl)methyl)-3-(trifluoromethyl)phenyl)-4-methyl-3-((8-((1-methyl-1H-pyrazol-4-yl)amino)imidazo[1,2-a]pyridin-3-yl)ethynyl)benzamide], the IC50 (MDA-MB-231) was 96 nM and the IC50 (M-NFS-60) was 34.1 nM.

With Cc1ccc(C(=O)Nc2cccc(C(F)(F)F)c2)cc1C#Cc1cnc2c(Nc3cnn(C4CCNCC4)c3)cccn12 [Example 11, 4-methyl-3-((8-((1-(piperidin-4-yl)-1H-pyrazol-4-yl)amino)imidazo[1,2-a]pyridin-3-yl)ethynyl)-N-(3-(trifluoromethyl)phenyl)benzamide] the IC50 (MDA-MB-231) was 679 nM and the IC50 (M-NFS-60) was 30.8 nM.

Molecule Cc1cn(-c2cc(NC(=O)c3ccc(C)c(C#Cc4cnc5c(Nc6cnn(C)c6)cccn45)c3)cc(C(F)(F)F)c2)cn1 [Example 12, 4-methyl-N-(3-(4-methyl-1H-imidazol-1-yl)-5-(trifluoromethyl)phenyl)-3-((8-((1-methyl-1H-pyrazol-4-yl)amino)imidazo[1,2-a]pyridin-3-yl)ethynyl)benzamide] has an IC50 (MDA-MB-231) of 1190 nM, a remaining binding at 1 µM [1] of 68% and a remaining binding at 1 µM [2] of 100%. It also gave a remaining binding at 1 µM [3] of 92%, a remaining binding at 1 µM [4] of 92% and a remaining binding at 1 µM [5] of 76%. The IC50 (M-NFS-60) was 247 nM.

Cc1ccc(NC(=O)C2(C(=O)Nc3ccc(F)cc3)CC2)cc1C#Cc1cnc2c(Nc3cnn(C(C)C)c3)cccn12 [Example 78] was tested, and the IC50 (MDA-MB-231) was 8780 nM, the remaining binding at 1 µM [1] was 81% and the remaining binding at 1 µM [2] was 89%. It also gave a remaining binding at 1 µM [3] of 100%, a remaining binding at 1 µM [4] of 90% and a remaining binding at 1 µM [5] of 89%. For the same molecule, the IC50 (M-NFS-60) was 672 nM.

— patent US10870647B2, “Imidazopyridine derivative, method for preparing same, and pharmaceutical composition containing same as active ingredient for preventing or treating cancer” (DAEGU-GYEONGBUK MEDICAL INNOVATION FOUNDATION, priority 2016, dated 2020)
